In ChEMBL document CHEMBL1135555 (Bioorg Med Chem Lett, 2002):

Assays:
[1] = Inhibition of Phosphodiesterase 3 from rat diaphragm
[2] = target: cGMP-specific 3',5'-cyclic phosphodiesterase (Rattus norvegicus, UniProt O54735); assay: Inhibition of Phosphodiesterase 5 from rat diaphragm

C=C(C)C(CCC(C)(C)O)Cc1c(O)cc(OC)c2c1O[C@H](c1ccc(O)cc1O)[C@H](O)C2=O (stereo partly specified)
IC50 [1]: 12800 nM
IC50 [2]: 10600 nM

C=C(C)C(CCC(C)(C)O)Cc1c(O)cc(OC)c2c1O[C@H](c1ccc(O)cc1O)[C@@H](O)C2=O (stereo partly specified)
IC50 [1]: 13500 nM

C=C(C)[C@H](CC=C(C)C)Cc1c(O)cc(OC)c(C(=O)/C=C/c2ccc(O)cc2O)c1O [KURAIDIN]
IC50 [1]: 1250 nM
IC50 [2]: 640 nM

C=C(C)[C@H](CCC(C)(C)O)Cc1c(O)cc(OC)c2c1O[C@H](c1ccc(O)cc1O)CC2=O [KURARINOL]
IC50 [1]: 2950 nM
IC50 [2]: 6100 nM

Cc1[nH]c(=O)c(C#N)cc1-c1ccncc1 [MILRINONE]
IC50 [1]: 740 nM

COc1cc(O)c(CC=C(C)C)c2oc(-c3ccc(O)cc3)c(O)c(=O)c12 [SOPHOFLAVESCENOL]
IC50 [1]: 410 nM
IC50 [2]: 13 nM
Ki [2]: 5 nM
